# In patent US11932632B1, “N'-(2-(5-phenyl-1,3,4-oxadiazol-2-ylthio)acetoxy)benzo[d][1,3]dioxole-5 carboximidamide as an antimicrobial compound” (KING FAISAL UNIVERSITY, priority 2023, dated 2024):
# Legend:
# Type in all cases: cell-based
# [1] = test system: Bacillus Cereus; experiment: Agar plate disc-diffusion, antibacterial activity by inhibition zone; conditions: nutrient agar, 37° C., 48 h, DMSO zone subtracted
# Description: (§1) The agar plate disc-diffusion method was applied. […] The discs were then placed onto the surface of agar plates (nutrient agar for bacteria and Sabouraud's dextrose agar for fungi) seeded with the test organism. Each plate contained 15 mL of the agar medium, previously seeded with 0.2 mL of the broth culture of each organism pregrown for 18 hours. The plates were incubated at 37° C. for 48 h, and 72 h for fungi. The inhibition zones were measured in mm. Discs impregnated with DMSO were used as a control, and its inhibition zone was subtracted from the tested compound actual inhibition zone.
# (§2) The results of the antimicrobial testing can be observed in Tables 1 and 2, below, using ciprofloxacin as a reference.
# [2] = test system: Escherichia coli; experiment: as above; conditions: nutrient agar, 37° C., 48 h, DMSO zone subtracted
# Description: as §1, §2
# [3] = test system: Pseudomonas aeruginosa; experiment: as above; conditions: nutrient agar, 37° C., 48 h, DMSO zone subtracted
# Description: as §1, §2
# [4] = test system: Staphylococcus aureus; experiment: as above; conditions: nutrient agar, 37° C., 48 h, DMSO zone subtracted
# Description: as §1, §2
# [5] = test system: Aspergillus flavus; experiment: Agar plate disc-diffusion, antifungal activity by inhibition zone; conditions: Sabouraud's dextrose agar, 37° C., 72 h, DMSO zone subtracted
# Description: as §1, §2
# [6] = test system: Chrysosporium keratinophilum; experiment: as above; conditions: Sabouraud's dextrose agar, 37° C., 72 h, DMSO zone subtracted
# Description: as §1, §2
# [7] = A = concentration of comp. = 10,000 μL
# [8] = B = concentration of comp. = 30.000 μL
# [9] = C = concentration of comp. = 50,000 μL
smiles,measurement,setting,value
"N/C(=N\OC(=O)CSc1nnc(-c2ccccc2)o1)c1ccc2c(c1)OCO2 [Compound 3, N′-(2-(5-phenyl-1,3,4-oxadiazol-2-ylthio)acetoxy)benzo[d][1,3]dioxole-5-carboximidamide]","inhibition zone, Bacillus Cereus, A",[1]; [7],25 mm
same,"inhibition zone, Bacillus Cereus, B",[1]; [8],29 mm
same,"inhibition zone, Bacillus Cereus, C",[1]; [9],39 mm
same,"inhibition zone, Escherichia coli, A",[2]; [7],29 mm
same,"inhibition zone, Escherichia coli, B",[2]; [8],33 mm
same,"inhibition zone, Escherichia coli, C",[2]; [9],49 mm
same,"inhibition zone, Pseudomonas aeruginosa, A",[3]; [7],24 mm
same,"inhibition zone, Pseudomonas aeruginosa, B",[3]; [8],27 mm
same,"inhibition zone, Pseudomonas aeruginosa, C",[3]; [9],39 mm
same,"inhibition zone, Staphylococcus aureus, A",[4]; [7],18 mm
same,"inhibition zone, Staphylococcus aureus, B",[4]; [8],21 mm
same,"inhibition zone, Staphylococcus aureus, C",[4]; [9],37 mm
same,"inhibition zone, Aspergillus flavus, A",[5]; [7],21 mm
same,"inhibition zone, Aspergillus flavus, B",[5]; [8],25 mm
same,"inhibition zone, Aspergillus flavus, C",[5]; [9],36 mm
same,"inhibition zone, Chrysosporium keratinophilum, A",[6]; [7],25 mm
same,"inhibition zone, Chrysosporium keratinophilum, B",[6]; [8],27 mm
same,"inhibition zone, Chrysosporium keratinophilum, C",[6]; [9],42 mm
